Series [1] concerns A549. Put plainly: Cell viability assay, 3D hanging drop cell culture (CellTiter GLO 3D). It is filed as cell-based. The settings on record: Homo sapiens; A549, 3D hanging drop cell culture, 72 h; ±SD, N = 2; read-out: IC50 antitumor activity A549 3D. As for the experimental part:
(§1) Compounds are diluted 1:3. 500 nL (for 2 D cell culture) or 400 nL (for 3 D cell culture) of compound were transferred from mother plate to test plate by using Mosquito (TTP labtech). DMSO percentage in test concentrations was 0.5 − 1.0%. Starting concentration of the test compounds and standard compound doxorubicin was 50 µM (2 D cell culture) or 100 µM (3 D cell culture).
(§2) Cells were grown in 96 well Perfecta 3 D hanging drop plates 5000 cell/well for 4 days until spheres were formed (and checked under the microscope). After sphere formation cells were treated with compounds followed by 72 h incubation. Cell viability assay was performed according to the manufacturer’s instruction, using CellTiter GLO 3 D for 3 D cell culture (Promega); cell incubation was 5 min on the shaker followed by 25 min incubation in the dark. Plates were read using PE EnVision luminescence.
(§3) Calculation of IC50 data, curves and QC analysis is made by using Excel tools and GraphPadPrism software (La Jolla, CA), v. […] QC criteria parameters (Z', S:B, R2, HillSlope) were checked for every IC50 curve.
On the technique in general: Cellular ATP, detected with luciferase, serves as a proxy for viable cell number.

In series [2] the test system is HCC827. Described as above. Particulars: Homo sapiens, read-out: IC50 antitumor activity HCC827 3D. It is filed as cell-based. Here is the method: as §1, §2, §3
Series [3] concerns NCI-H358. The description is as above. It is filed as cell-based. Particulars: Homo sapiens, read-out: IC50 antitumor activity NCI-H358 3D. As for the experimental part: as §1, §2, §3
The subject of series [4] is HCC827. Put plainly: BrdU proliferation assay, 3D cell culture. It is filed as cell-based. The settings on record: Homo sapiens, HCC827, 3D cell culture, ±SD, N = 2. As for the experimental part:
as §2
(§4) Proliferation assay was performed using Cell Proliferation ELISA, BrdU (Sigma, St. Louis, MO, USA). Briefly, 48 h hours after compound addition, 10 µM of BrdU was added to each well and incubated for following 24 h. After incubation, single cell suspension was made for 3 D cell culture in the new 96 well plate. Plates were centrifuged and supernatants were removed from each plate (for 2 D and 3 D cell culture) followed by 60 min incubation at 60° C. The rest of the proliferation assay was performed according to the manufacturer instructions.
as §3

Series [5] concerns HCC827. Briefly: BrdU proliferation assay, 2D cell culture. Particulars: Homo sapiens, HCC827, 2D cell culture, ±SD, N = 2. It is filed as cell-based. Here is the method: (§5) Cells were grown in 96 well cell star polystyrene plates. 10,000 cells/well were seeded in wells 4 h prior the treatment with different compounds concentrations and incubated for 72 h. A cell viability assay was performed according to the manufacturer’s instruction, using CellTiter 96 aqueous solution, MTS kit (Promega, Madison, WI, USA). After 0.5–2 h of cell incubation with MTS in 2 D cell culture, the plates were read using PE EnVision absorbance at 490 nm. […] Since we prefer homogeneous assays (mix and read procedures) and therefore MTS is more practical (one step less than MTT). MTS is more sensitive and accurate in comparison with MTT assay.
as §4, §3

Series [6] concerns NCI-H358. Briefly: BrdU proliferation assay, 2D cell culture. It is filed as cell-based. The settings on record: Homo sapiens, NCI-H358, 2D cell culture, ±SD, N = 2. As for the experimental part: as §5, §4, §3
Series [7] has as its system A549. Briefly: BrdU proliferation assay, 3D cell culture. It is filed as cell-based. Particulars: Homo sapiens, A549, 3D cell culture, ±SD, N = 2. As for the experimental part: as §2, with “luminescence. The results for each of tested compounds are reported as growth percentages from two independent concentrations curves compared with the untreated control cells after drug exposure.” for “luminescence.”
as §4
(§6) Calculation of IC50 data, curves and QC analysis is made by using Excel tools and GraphPadPrism software (La Jolla, CA), v. 5.03. In brief, individual concentration–effect curves are generated by plotting the logarithm of the tested concentration of tested compounds (X) versus corresponding percent inhibition values (Y) using least squares (ordinary) fit. […] QC criteria parameters (Z', S:B, R2, HillSlope) were checked for every IC50 curve.

Series [8] has as its system NCI-H358. Briefly: BrdU proliferation assay, 3D cell culture. It is filed as cell-based. The settings on record: Homo sapiens, NCI-H358, 3D cell culture, ±SD, N = 2. As for the experimental part: as §2, with “luminescence. The results for each of tested compounds are reported as growth percentages from two independent concentrations curves compared with the untreated control cells after drug exposure.” for “luminescence.”
as §4, §6

Series [9] relates to A549. Briefly: BrdU proliferation assay, 2D cell culture. It is filed as cell-based. Particulars: Homo sapiens, A549, 2D cell culture, ±SD, N = 2. As for the experimental part:
Cells were grown in 96 well cell star polystyrene plates. 10,000 cells/well were seeded in wells 4 h prior the treatment with different compounds concentrations and incubated for 72 h. A cell viability assay was performed according to the manufacturer’s instruction, using CellTiter 96 aqueous solution, MTS kit (Promega, Madison, WI, USA). After 0.5–2 h of cell incubation with MTS in 2 D cell culture, the plates were read using PE EnVision absorbance at 490 nm. The results for each of tested compounds are reported as growth percentages from two independent concentrations curves compared with the untreated control cells after drug exposure. Since we prefer homogeneous assays (mix and read procedures) and therefore MTS is more practical (one step less than MTT). MTS is more sensitive and accurate in comparison with MTT assay.
as §4, §6

Series [10] deals with A549. Briefly: MTS cell viability (cytotoxicity) assay, 2D cell culture. It is filed as cell-based. Particulars: Homo sapiens, A549, 2D cell culture, 72 h, ±SD, N = 2, read-out: IC50 antitumor activity A549 2D. As for the experimental part: as §1, §5, §3
Series [11] concerns HCC827. Described as above. It is filed as cell-based. The settings on record: Homo sapiens, read-out: IC50 antitumor activity HCC827 2D. Here is the method: as §1, §5, §3
Series [12] relates to NCI-H358. The series is described as above. It is filed as cell-based. Particulars: Homo sapiens, read-out: IC50 antitumor activity NCI-H358 2D. As for the experimental part:
as §1, §5, §3

Where [13] appears, read: HCC827, 3D hanging drop cell culture, 72 h, ±SD, N = 2.
[14] abbreviates: NCI-H358, 3D hanging drop cell culture, 72 h, ±SD, N = 2.
The mark [15] stands for this setting: HCC827, 2D cell culture, 72 h, MTS, ±SD, N = 2.
[16] abbreviates: NCI-H358, 2D cell culture, 72 h, MTS, ±SD, N = 2.

The values that follow come from article PMC7801115, “Preclinical in vitro screening of newly synthesised amidino substituted benzimidazoles and benzothiazoles” (Journal of Enzyme Inhibition and Medicinal Chemistry, 2021).

Structures can show the parent of a compound that is named as a salt. Bounds are passed on as bounds.

For the compound `Cl.c1ccc(-c2nc3ccc(C4=NCCCN4)cc3s2)cc1` [Compound 5a, 2-Phenyl-6–(3,4,5,6-tetrahydropyrimidin-1-ium-2-yl)benzothiazole chloride], the melting point (usually the temperature, or range, at which the solid turns liquid) fell in the range of 272 to 275 °C. Besides, the IC50 (in general, the midpoint of a concentration-inhibition curve) with A549 [1] is greater than 100000 nM. The 50% inhibitory concentration (IC50) in the series with HCC827 [2] (setting [13]) is greater than 100000 nM. Besides, the IC50 in the series on NCI-H358 [3] (setting [14]) was greater than 100000 nM. Besides, the IC50 in the series with HCC827 [4] was greater than 100000 nM. The same compound yielded an IC50 in the series with HCC827 [5] greater than 50000 nM. The same compound came in with an IC50 in the series on NCI-H358 [6] greater than 50000 nM. For the same compound, in the series on A549 [7], the IC50 was greater than 100000 nM. Also, in the series with NCI-H358 [8], the half-maximal inhibitory concentration (IC50) is greater than 100000 nM. The compound further displayed a concentration for half-maximal inhibition (IC50) in the series on A549 [9] greater than 50000 nM. Also, the IC50 with A549 [10] was greater than 50000 nM. Also, the IC50 in the series with HCC827 [11] (setting [15]) was greater than 50000 nM. For the same compound, the IC50 with NCI-H358 [12] (setting [16]) is greater than 50000 nM.
Turning to `COc1cc2c(Nc3ccc(Br)cc3F)ncnc2cc1OCC1CCN(C)CC1` [Vandetanib, reference compound], the IC50 is greater than 50000 nM in the series on A549 [1]; 2000 ± 110 nM in the series on HCC827 [2] (setting [13]); 300 ± 20 nM in the series with NCI-H358 [3] (setting [14]); 870 ± 1150 nM in the series with HCC827 [4]; 2820 ± 1980 nM with HCC827 [5]; 1000 ± 280 nM in the series with NCI-H358 [6]. The IC50 in the series on A549 [7] was 1250 ± 2820 nM; in the series on NCI-H358 [8], 1910 ± 90 nM; with A549 [9] it was greater than 25000 nM; with A549 [10] it was greater than 25000 nM; in the series with HCC827 [11] (setting [15]), 810 ± 50 nM; in the series on NCI-H358 [12] (setting [16]), 3000 ± 850 nM.
Take `CN[C@@H]1C[C@H]2O[C@@](C)([C@@H]1OC)n1c3ccccc3c3c4c(c5c6ccccc6n2c5c31)C(=O)NC4` [Staurosporine, reference compound]: the IC50 stood at 40 ± 10 nM with HCC827 [4], 60 ± 10 nM with HCC827 [5] and 150 ± 10 nM in the series with HCC827 [11] (setting [15]).
`c1ccc2c(-c3nc4ccc(C5=NCCCN5)cc4[nH]3)c[nH]c2c1` (as salt: chloride) [Compound 6e, 2-(1H-Indol-3-yl)-5(6)–(3,4,5,6-tetrahydropyrimidin-1-ium-2-yl)benzimidazole chloride] gave a melting point greater than 300 °C.
As for `COc1cccc2c1C(=O)c1c(O)c3c(c(O)c1C2=O)C[C@@](O)(C(=O)CO)C[C@@H]3O[C@H]1C[C@H](N)[C@H](O)[C@H](C)O1` [Doxorubicin, reference compound], the IC50 in the series with A549 [1] turned out to be 5000 ± 260 nM; in the series on HCC827 [2] (setting [13]), 780 ± 80 nM; in the series with NCI-H358 [3] (setting [14]), 250 ± 30 nM; in the series with HCC827 [4], 1030 ± 710 nM; with HCC827 [5] it was 20 nM; in the series on NCI-H358 [6] it was 40 nM. Besides, the IC50 in the series with A549 [7] was 390 ± 20 nM; in the series on NCI-H358 [8] it was 340 ± 360 nM; in the series with A549 [9], 60 ± 10 nM; in the series on A549 [10], 2000 ± 230 nM; in the series with HCC827 [11] (setting [15]), 390 ± 50 nM; in the series with NCI-H358 [12] (setting [16]), 110 ± 10 nM.
On to `Cl.c1ccc2c(c1)cc(-c1nc3ccc(C4=NCCCN4)cc3s1)c1ccccc12` [Compound 5i, 2-(Phenanthrene-9-yl)-6–(3,4,5,6-tetrahydropyrimidin-1-ium-2-yl)benzothiazole chloride], for which the melting point lay in the range of 196 to 200 °C. Besides, the concentration for half-maximal inhibition (IC50) in the series on A549 [1] is greater than 100000 nM. Besides, the IC50 with HCC827 [2] (HCC827, 72 h) was greater than 100000 nM. Moreover, the IC50 in the series with NCI-H358 [3] (NCI-H358, 72 h) is greater than 100000 nM. Also, in the series with HCC827 [4], the IC50 is greater than 100000 nM. The same compound displayed an IC50 with HCC827 [5] greater than 50000 nM. In addition, the IC50 in the series with NCI-H358 [6] was greater than 50000 nM. This compound returned a concentration for half-maximal inhibition (IC50) in the series with A549 [7] greater than 100000 nM. In the series with NCI-H358 [8], the IC50 was greater than 100000 nM. Moreover, the IC50 in the series with A549 [9] is greater than 50000 nM. In the series with A549 [10], the IC50 is greater than 50000 nM. Besides, the half-inhibitory concentration (IC50) with HCC827 [11] (HCC827, 72 h) is greater than 50000 nM. Further, the IC50 with NCI-H358 [12] (NCI-H358, 72 h) is greater than 50000 nM.
Compound `Cl.c1ccc2c(-c3nc4ccc(C5=NCCCN5)cc4s3)c[nH]c2c1` [Compound 5f, 2-(1H-Indol-3-yl)-6–(3,4,5,6-tetrahydropyrimidin-1-ium-2-yl)benzothiazole chloride] returned a melting point greater than 300 °C. Also, the IC50 in the series on A549 [1] is greater than 100000 nM. Besides, the IC50 in the series with HCC827 [2] (setting [13]) is greater than 100000 nM. In addition, in the series on NCI-H358 [3] (setting [14]), the concentration for half-maximal inhibition (IC50) was greater than 100000 nM. This compound also came in with an IC50 with HCC827 [4] greater than 100000 nM. In the series on HCC827 [5], the IC50 was greater than 50000 nM. In the series with NCI-H358 [6], this compound had an IC50 greater than 50000 nM. The compound also displayed an IC50 in the series with A549 [7] greater than 100000 nM. The IC50 with NCI-H358 [8] is greater than 100000 nM. The compound also had an IC50 in the series with A549 [9] greater than 50000 nM. Further, the IC50 with A549 [10] was greater than 50000 nM. Besides, the IC50 in the series with HCC827 [11] (setting [15]) was greater than 50000 nM. Moreover, the IC50 in the series with NCI-H358 [12] (setting [16]) is greater than 50000 nM.
